Measured values published in ChEMBL document CHEMBL5230155, “Recent contributions of quinolines to antimalarial and anticancer drug discovery research” (Eur J Med Chem, 2021).
Converted amounts (≈) assume the structure as drawn.

Columns and labels:
Plasmodium falciparum [1] = experiment: microbe, parasite or virus in culture; details: NF54
Description: Antimalarial activity against CQ-sensitive Plasmodium falciparum NF54

Plasmodium falciparum [2] = experiment: Antimalarial activity against CQ-resistant Plasmodium falciparum W2; assay type: functional, organism-based
Plasmodium falciparum [3] = experiment: Antimalarial activity against CQ-sensitive Plasmodium falciparum D6; assay type: functional, organism-based
MCF7 = experiment: Antiproliferative activity against human MCF7 cells; assay type: functional, cell-based; details: Homo sapiens, MCF7
Plasmodium falciparum [4] = experiment: Antimalarial activity against CQ-sensitive Plasmodium falciparum 3D7; assay type: functional, organism-based
Plasmodium falciparum [5] = experiment: Antimalarial activity against CQ-resistant Plasmodium falciparum K1; assay type: functional, organism-based
[6] = molecular target: Cathepsin B (Homo sapiens) (UniProt P07858); experiment: Inhibition of human cathepsin B exopeptidase activity at 50 uM relative to control
Plasmodium falciparum [7] = experiment: microbe, parasite or virus in culture
Description: Antimalarial activity against Plasmodium falciparum

HepG2 = experiment: Cytotoxicity against human HepG2 cells; assay type: functional, cell-based; details: Homo sapiens, HepG2
[8] = molecular target: Hepatocyte growth factor receptor (Homo sapiens, UniProt P08581); experiment: Inhibition of c-Met (unknown origin)
[9] = molecular target: Lysine-specific demethylase 6B (Homo sapiens) (UniProt O15054); experiment: Inhibition of JMJD3 (unknown origin) at 25 uM relative to control
HeLa = experiment: Antiproliferative activity against human HeLa cells; assay type: functional, cell-based
HCT-116 = experiment: Cytotoxicity against human HCT-116 cells; assay type: functional, cell-based
[10] = Binding affinity to human nRNP
PC-3 = experiment: Antiproliferative activity against human PC-3 cells; assay type: functional, cell-based

Lysine-specific demethylase 6B (Homo sapiens), sequence (O15054 whole entry): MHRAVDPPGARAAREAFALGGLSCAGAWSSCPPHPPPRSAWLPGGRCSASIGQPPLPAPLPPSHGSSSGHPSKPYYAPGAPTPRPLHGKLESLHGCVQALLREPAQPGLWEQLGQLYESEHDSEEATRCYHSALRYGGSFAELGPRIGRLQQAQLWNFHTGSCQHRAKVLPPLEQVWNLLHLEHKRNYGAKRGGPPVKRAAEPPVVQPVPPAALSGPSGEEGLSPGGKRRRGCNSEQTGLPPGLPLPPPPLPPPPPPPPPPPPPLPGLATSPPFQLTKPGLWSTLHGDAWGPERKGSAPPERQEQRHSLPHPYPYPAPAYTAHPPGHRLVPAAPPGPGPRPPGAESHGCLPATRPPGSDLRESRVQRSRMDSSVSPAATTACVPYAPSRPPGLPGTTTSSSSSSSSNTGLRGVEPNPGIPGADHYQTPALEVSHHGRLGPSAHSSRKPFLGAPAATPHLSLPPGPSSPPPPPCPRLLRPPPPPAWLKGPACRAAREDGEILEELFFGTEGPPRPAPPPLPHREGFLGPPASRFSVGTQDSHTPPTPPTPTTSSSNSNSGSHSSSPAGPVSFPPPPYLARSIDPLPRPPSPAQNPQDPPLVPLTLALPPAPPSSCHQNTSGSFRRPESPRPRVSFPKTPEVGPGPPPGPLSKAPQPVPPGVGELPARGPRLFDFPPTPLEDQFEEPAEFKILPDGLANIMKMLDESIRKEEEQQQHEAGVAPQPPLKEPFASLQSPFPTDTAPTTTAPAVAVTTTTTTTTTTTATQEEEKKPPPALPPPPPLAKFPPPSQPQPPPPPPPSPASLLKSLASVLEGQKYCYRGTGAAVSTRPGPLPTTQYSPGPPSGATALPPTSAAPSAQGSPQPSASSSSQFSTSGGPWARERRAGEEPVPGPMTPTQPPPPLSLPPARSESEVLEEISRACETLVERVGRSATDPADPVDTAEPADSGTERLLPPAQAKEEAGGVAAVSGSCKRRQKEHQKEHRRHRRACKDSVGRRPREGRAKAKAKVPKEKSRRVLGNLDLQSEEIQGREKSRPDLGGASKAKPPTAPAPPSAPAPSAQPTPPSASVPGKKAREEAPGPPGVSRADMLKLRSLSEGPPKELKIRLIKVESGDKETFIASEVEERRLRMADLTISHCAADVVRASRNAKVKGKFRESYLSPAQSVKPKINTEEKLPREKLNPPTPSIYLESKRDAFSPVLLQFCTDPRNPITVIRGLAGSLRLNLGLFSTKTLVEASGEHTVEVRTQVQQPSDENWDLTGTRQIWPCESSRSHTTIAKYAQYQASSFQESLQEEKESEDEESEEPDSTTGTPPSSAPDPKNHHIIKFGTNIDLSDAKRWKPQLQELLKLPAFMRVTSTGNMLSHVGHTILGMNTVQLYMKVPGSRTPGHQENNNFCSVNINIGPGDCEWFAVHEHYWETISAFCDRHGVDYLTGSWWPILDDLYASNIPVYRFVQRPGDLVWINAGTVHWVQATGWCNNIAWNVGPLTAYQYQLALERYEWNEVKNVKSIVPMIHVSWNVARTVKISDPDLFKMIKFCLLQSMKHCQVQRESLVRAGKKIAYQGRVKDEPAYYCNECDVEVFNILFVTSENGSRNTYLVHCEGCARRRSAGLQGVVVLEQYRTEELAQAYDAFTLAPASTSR
Hepatocyte growth factor receptor, sequence (P08581 whole entry): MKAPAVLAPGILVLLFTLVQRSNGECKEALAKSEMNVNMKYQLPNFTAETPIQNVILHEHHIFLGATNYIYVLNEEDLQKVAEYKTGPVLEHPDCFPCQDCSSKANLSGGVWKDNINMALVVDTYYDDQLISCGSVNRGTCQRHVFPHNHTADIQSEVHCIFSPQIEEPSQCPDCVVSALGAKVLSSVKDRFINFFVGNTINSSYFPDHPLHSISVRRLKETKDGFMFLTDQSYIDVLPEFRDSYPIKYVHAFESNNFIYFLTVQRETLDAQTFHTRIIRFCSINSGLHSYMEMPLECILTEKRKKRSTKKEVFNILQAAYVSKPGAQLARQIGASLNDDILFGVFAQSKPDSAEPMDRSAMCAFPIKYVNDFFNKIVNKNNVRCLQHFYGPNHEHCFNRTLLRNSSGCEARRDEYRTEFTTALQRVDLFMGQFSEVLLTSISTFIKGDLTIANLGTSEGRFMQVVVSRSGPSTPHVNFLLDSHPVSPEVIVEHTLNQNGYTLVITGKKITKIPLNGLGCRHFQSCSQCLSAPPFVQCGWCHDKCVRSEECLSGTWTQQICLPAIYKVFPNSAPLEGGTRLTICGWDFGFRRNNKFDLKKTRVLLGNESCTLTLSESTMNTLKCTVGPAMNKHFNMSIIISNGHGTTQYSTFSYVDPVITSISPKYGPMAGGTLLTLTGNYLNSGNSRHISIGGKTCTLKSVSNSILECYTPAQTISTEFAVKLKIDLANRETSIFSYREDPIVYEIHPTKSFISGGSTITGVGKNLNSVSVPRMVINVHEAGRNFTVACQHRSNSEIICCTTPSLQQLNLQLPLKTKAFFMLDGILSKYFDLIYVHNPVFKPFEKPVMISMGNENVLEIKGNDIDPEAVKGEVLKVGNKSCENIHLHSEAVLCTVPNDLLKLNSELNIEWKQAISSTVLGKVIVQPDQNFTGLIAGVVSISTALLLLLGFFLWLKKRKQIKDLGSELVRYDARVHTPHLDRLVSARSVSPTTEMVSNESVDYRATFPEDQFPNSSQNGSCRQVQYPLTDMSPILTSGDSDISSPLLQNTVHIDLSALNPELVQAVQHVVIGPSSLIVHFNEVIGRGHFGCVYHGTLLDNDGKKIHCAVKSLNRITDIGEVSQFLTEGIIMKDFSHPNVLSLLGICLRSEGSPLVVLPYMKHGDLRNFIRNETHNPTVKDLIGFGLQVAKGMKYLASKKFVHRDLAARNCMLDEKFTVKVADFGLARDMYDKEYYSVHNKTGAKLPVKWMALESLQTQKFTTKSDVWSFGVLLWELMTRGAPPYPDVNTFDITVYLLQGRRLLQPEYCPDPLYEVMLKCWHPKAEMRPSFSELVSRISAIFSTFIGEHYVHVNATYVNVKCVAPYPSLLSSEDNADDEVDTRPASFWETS

With C=C[C@@H]1CN2CC[C@@H]1C[C@@H]2[C@@H](O)c1ccnc2ccc(OC)cc12 the IC50 (Plasmodium falciparum [1]) was 122 nM.
CCCCCCCCOc1c(OC)cc(NC(C)CCCN)c2nc(C(C)(C)C)ccc12 (stereo not given) showed an IC50 (Plasmodium falciparum [2]) of 0.022 µg/mL and an IC50 (Plasmodium falciparum [3]) of 0.02 µg/mL.
In the case of Cc1cc(S(=O)(=O)c2ccccc2[N+](=O)[O-])c2ccccc2n1, the IC50 (MCF7) is reported as 1380 nM.
In the case of CC(C)c1ccc(-c2cncn2CCNc2ccnc3cc(Cl)ccc23)cc1, the IC50 (Plasmodium falciparum [4]) is reported as 79 nM and the IC50 (Plasmodium falciparum [5]) is reported as 290 nM.
Compound O=C(NCc1ccc(F)cc1)c1cc([N+](=O)[O-])c2cccnc2c1O has an inhibition [6] of 19.4%.
Cc1ccc2nc(-c3cn(-c4ccc(Cl)cc4)nc3-c3ccccc3)cc(C(=O)NCCCN(C)C)c2c1 gave an IC50 (Plasmodium falciparum [7]) of 0.0879 µg/mL (≈ 0.168 µM).
CC1(C)CC(NCc2cc3cccc(Cl)c3nc2N2CCCC2)CCO1 (stereo not given) gave an IC50 (Plasmodium falciparum [1]) of 24 nM.
Clc1ccc2c(NCCn3cncc3C3CCCC3)ccnc2c1 gave an IC50 (Plasmodium falciparum [4]) of 79 nM and an IC50 (Plasmodium falciparum [5]) of 290 nM.
Compound CN(C)CCNCc1ccc(-c2cc(-c3ccc(CNCCN(C)C)cc3)c3ccccc3n2)cc1 has an IC50 (Plasmodium falciparum [4]) of 32 nM, an IC50 (Plasmodium falciparum [2]) of 340 nM and an IC50 (HepG2) of 3100 nM.
For O=C1c2cccc(N3CCOCC3)c2C(=O)N1CCCCCCNc1ccnc2cc(Cl)ccc12, the IC50 (Plasmodium falciparum [2]) was 6 nM.
Work on O=C1c2ccc(N3CCN(CCO)CC3)cc2C(=O)N1CCCCCCNc1ccnc2cc(Cl)ccc12 yielded an IC50 (Plasmodium falciparum [2]) of 6 nM.
[2H]c1ccc2cc(C(F)(F)c3nnc4ccc(-c5cnn(C)c5)nn34)ccc2n1 gave an IC50 [8] of 2.6 nM.
CCCCCOc1c(OC)cc(NC(C)CCCN)c2nc(C(C)(C)C)ccc12 (stereo not given) gave an IC50 (Plasmodium falciparum [2]) of 0.022 µg/mL and an IC50 (Plasmodium falciparum [3]) of 0.02 µg/mL.
Cc1cccc2cc(CNC3CCOC(C)(C)C3)c(N3CCCC3)nc12 (stereo not given) gave an IC50 (Plasmodium falciparum [5]) of 173 nM and an IC50 (Plasmodium falciparum [1]) of 22 nM.
In the case of Cc1ccsc1-c1cncn1CCNc1ccnc2cc(Cl)ccc12, the IC50 (Plasmodium falciparum [4]) is reported as 79 nM and the IC50 (Plasmodium falciparum [5]) is reported as 290 nM.
Work on CCCCCCCOc1c(OC)cc(NC(C)CCCN)c2nc(C(C)(C)C)ccc12 (stereo not given) yielded an IC50 (Plasmodium falciparum [2]) of 0.022 µg/mL and an IC50 (Plasmodium falciparum [3]) of 0.02 µg/mL.
With C#Cc1ccc(-c2cn(CCNc3ccnc4cc(Cl)ccc34)nn2)c(F)c1 the IC50 (Plasmodium falciparum [5]) was 160 nM and the IC50 (Plasmodium falciparum [1]) was 140 nM.
Work on CC(C)NC(=S)NNC(=O)c1cc(-c2ccccc2Cl)nc2ccccc12 yielded an IC50 (Plasmodium falciparum [7]) of less than 0.3 µg/mL.
Work on OCc1cc(-c2cn(-c3ccc(Cl)cc3)nc2-c2ccccc2)nc2ccccc12 yielded an IC50 (Plasmodium falciparum [7]) of 0.092 µg/mL (≈ 0.223 µM).
With Cc1ccc(S(=O)(=O)Oc2ccc(Cl)c3cccnc23)cc1 the IC50 (MCF7) was 1380 nM.
For COc1ccc(F)cc1-c1cnc2c(C(=O)O)ccc(C(=O)O)c2c1, the inhibition [9] was 0%.
Compound N#CN=C(NCCCCCCOc1ccc(Cl)cc1)Nc1ccncc1 [CHS-828] has an IC50 (HeLa) of 40 nM.
Work on O=C(O)c1cc(-c2ccccc2)nc2ccc(Cl)cc12 yielded an IC50 (Plasmodium falciparum [7]) of 0.12 µg/mL (≈ 0.423 µM).
For O=C(N/N=C/c1cc(O)ccc1O)c1ccc(Nc2ccnc3ccccc23)cc1, the IC50 (HepG2) was 27300 nM.
Work on CCCCNC(=O)c1cc([N+](=O)[O-])c2cccnc2c1O yielded an inhibition [6] of 19.4%.
Compound CN(C)c1ccc(/C=C/c2cc(-c3nnc(N)s3)c3cc(Br)ccc3n2)cc1 has an IC50 (HepG2) of 7.7 µg/mL and an IC50 (HCT-116) of 7.7 µg/mL (≈ 17 µM).
For Cc1c(Cl)ccc2cc(/C=C/C(=O)c3ccc(Cl)cc3)c(Cl)nc12, the IC50 (Plasmodium falciparum [2]) was less than 50 nM and the IC50 (Plasmodium falciparum [3]) was less than 50 nM.
O=C(NCCO)c1cc([N+](=O)[O-])c2cccnc2c1O gave an inhibition [6] of 19.4%.
In the case of COc1ncc(-c2cnc3c(C(=O)O)ccc(C(=O)O)c3c2)c(OC)n1, the inhibition [9] is reported as 90%.
Work on COc1ccc(C(=O)/C=C/c2cc(N3CCOCC3)c3cc(OC)ccc3n2)cc1 yielded a Kd [10] of 4600 nM.
Work on O=C(NNC(=S)Nc1ccccc1)c1cc(-c2c(F)cccc2F)nc2ccc(C(F)(F)F)cc12 yielded an IC50 (Plasmodium falciparum [7]) of 0.1 µg/mL (≈ 0.199 µM).
O=C(NNC(=S)Nc1cc(Cl)cc(Cl)c1)c1cc(-c2ccc(F)cc2F)nc2cc(Cl)c(F)cc12 gave an IC50 (Plasmodium falciparum [7]) of 0.1 µg/mL (≈ 0.18 µM).
For CCCCCCOc1c(OC)cc(NC(C)CCCN)c2nc(C(C)(C)C)ccc12 (stereo not given), the IC50 (Plasmodium falciparum [2]) was 0.022 µg/mL and the IC50 (Plasmodium falciparum [3]) was 0.02 µg/mL.
In the case of Cc1c(Cl)ccc2cc(/C=C/C(=O)c3ccccc3Br)c(Cl)nc12, the IC50 (Plasmodium falciparum [2]) is reported as less than 50 nM and the IC50 (Plasmodium falciparum [3]) is reported as less than 50 nM.
In the case of O=C(NC1CCCCC1)c1cc([N+](=O)[O-])c2cccnc2c1O, the inhibition [6] is reported as 19.4%.
In the case of COc1ccc2nc(-c3ccccc3)cc(C(=O)O)c2c1, the IC50 (Plasmodium falciparum [7]) is reported as 0.12 µg/mL (≈ 0.43 µM).
For CN(C)C/C=C/C(=O)Nc1cc2c(Nc3ccc(F)c(Cl)c3)ncnc2cc1O[C@H]1CCOC1 [AFATINIB], the IC50 (HepG2) was 5.3 µg/mL and the IC50 (HCT-116) was 5.3 µg/mL (≈ 10.9 µM).
COc1ccc2nccc([C@@H](O)C3CC4CCN3CC4c3ccc(C(F)(F)F)cc3)c2c1 (mixture of isomers) gave an IC50 (Plasmodium falciparum [1]) of 5 nM.
With COc1ccc(C(=O)/C=C/c2cc(N3CCOCC3)c3ccccc3n2)cc1 the Kd [10] was 4600 nM.
O=C(NNC(=S)Nc1ccc(Cl)cc1Cl)c1cc(-c2ccccc2Cl)nc2ccccc12 gave an IC50 (Plasmodium falciparum [7]) of less than 0.3 µg/mL.
Cc1c(Cl)ccc2cc(/C=C/C(=O)c3cccc(Br)c3)c(Cl)nc12 gave an IC50 (Plasmodium falciparum [2]) of less than 50 nM and an IC50 (Plasmodium falciparum [3]) of less than 50 nM.
Compound CC(O)(CS(=O)(=O)c1ccc(F)cc1)C(=O)Nc1ccc(C#N)c(C(F)(F)F)c1 (stereo not given) [BICALUTAMIDE] has an IC50 (PC-3) of 1300 nM.
COc1ccc(C2CN3CCC2CC3[C@H](O)c2ccnc3ccc(OC)cc23)cc1 (mixture of isomers) showed an IC50 (Plasmodium falciparum [1]) of 5 nM.
Cc1ccc(NC(=S)NNC(=O)c2c(C)nc3ccccc3c2C)cc1 showed an IC50 (Plasmodium falciparum [7]) of 0.02 µg/mL (≈ 0.0549 µM).
